From patent US9566290B2, “Boron-containing small molecules” (Anacor Pharmaceuticals, Inc., priority 2005, dated 2017) come the findings set out here.

The test concerns S. cerevisiae ATCC201388 bearing pRS425 or CDC60 on pRS425. The test is described as follows: MIC with over-expression of wild type CDC60. It counts as cell-based, Saccharomyces cerevisiae. The settings on record: for MIC: Saccharomyces cerevisiae. From the text: The minimal inhibitory concentration (MIC) was essentially performed following the NCCLS guidelines outlined in the M27 protocol with the exception of using YPD or synthetic defined media (SDM).
A 4.0 kb BamH I-Sal I DNA fragment containing the entire CDC60 open reading frame (ORF) and 700 bp of upstream sequence was amplified using KOD DNA polymerase, S. cerevisiae genomic DNA (Novagen, Madison, Wis., USA), and the primers GAGGGATCCGGTTAGTTTTAGTTCGCGAGTGACCTG and GAGGTCGACGATTTCTGGTTGCTGTTTATTGATCTT (Operon, Alameda, Calif., USA). This DNA fragment was then cloned into the […] multi-copy plasmid pRS425, and transformed into S. cerevisiae ATCC201388 (Gietz, R D et al., Methods in Enzymology 305: 87-96 (2002)).

Values after ≈ are worked out from the molar mass of the structure shown. “Also recorded” adds a separate entry of the source.

As for `OB1OCc2cc(F)ccc21` [C10, 5-fluorobenzo[c][1,2]oxaborol-1(3H)-ol], under “CDC60 on multi-copy 2 μM plasmid versus same strain bearing pRS425”, the “increase in resistance (MIC) with additional copies of CDC60” value is “eight times more resistant; also recorded: eight times higher; also recorded: eight-fold”. Moreover, the MIC (as a rule, the smallest concentration in the dilution series that meets the test's criterion for growth inhibition) is, setting by setting: (ATCC201388, CDC60 on pRS425 (20 copies)) 1 µg/mL (≈ 6.58 µM); (ATCC201388, pRS425 Plasmid control) 0.125 µg/mL (≈ 0.823 µM).
